Columns and labels:
Flu-stimulated pDC = assay: IFN-α production and membrane TRAIL by pDC cultured with Flu or Dengue; assay type: cell-based, human
Experimental: PBMC were seeded at 1.10^6/1 mL or purified pDC were seeded at 5.10^4/100 μl and then stimulated with the following viruses: inactivated AT-2 HIV-1MN (CXCR4 co-receptor specific) or AT-2 HIV-1ADA (CCR5 co-receptor specific) at 60 ng/mL p24^CA equivalent (provided by J. D. Lifson (SAIC-NCI, Frederick, Md.)), Infectious human Influenza A/PR/8/34 virus (Flu), titer 1:8192 at dilution 1:1000 or DENV-2 16681 at MOI 10. Infectious HIV-1MN [tissue culture 50% infective dose (TCID50)=[…]] and HIV-1ADA (TCID50=1,000) were used at the same concentration. Purified pDC were pre-treated with amino compounds for 1 hour, following overnight stimulation with virus. Supernatants were collected for cytokine detection. Microvesicles isolated from uninfected cell cultures matched to the culture to produce the virus were used as negative control (Mock).
The compounds were added in pDC culture at 10 μM (or other if specified) 1 hour before stimulation or not of the different viruses. For histamine, X-vivo culture media (Lonza) was used in order to avoid histaminases.
Cells were pre-incubated 1 hour with AMD (20 μM) (Sigma-Aldrich, MO, USA) prior to CB or histamine incubation. pDC were cultured in the presence of […] of the oligodinucleotide A151 (TTAGGG) ODN (Integrated DNA Technologies, Coralville, Iowa). […]

CXCR4 = CXCR4 (Homo sapiens, UniProt P61073); conditions: Jurkat cells, 1 mM, 4° C. for 30 min
[1] = Solubility of test compounds
[2] = test system: collagen-induced arthritis in DBA1/J mice; assay: Therapeutic collagen-induced arthritis model in DBA1/J mice; assay type: in vivo, mouse; conditions: for average AI (Arthritic Index): maximum AI=16
Experimental: 80 DBA1/J mice (male, 7-8 weeks) was received and placed in quarantine for 3 days with daily inspections. Ear tag mice for individual identification.
Individual mouse weights were recorded. Hind paw thickness were recorded by digital caliper. 80 mice subcutaneous were injected with collagen/CFA emulsion (0.05 ml/mouse; 100 μg/mouse collagens in CFA) using a 1 ml syringe fitted with a 25G needle. Mice returned to cages.
80 mice were boosted with collagen/ICFA emulsion. Then their individual weights were recorded.
Mice were scored for signs of arthritis:
7) Calculate Arthritic Index (AI) by addition of individual paw scores and record.
Mice with an AI score within a range of 2-6 were selected for assignment to groups for therapeutic dosing as in Table 4.
Begin intraperitoneal (IP) dosing once daily (QD) according to Table 4.
The compounds clobenpropit (CB) and IT1t were tested. CB and IT1t were stored at 4° C. […] These compounds were doses 7 days per week (Saturday and Sunday included) daily for 14 days.
Mice were weighed, scored for signs or arthritis, and hind paw thickness is measured by digital caliper three-times weekly (Monday, Wednesday and Friday). Any adverse reactions to treatment were recorded.
Termination: AI score were recorded for each limb. The paw thickness of the hind limbs is measured with digital caliper. Mice were anesthetized and exsanguinated into pre-chilled EDTA-tubes.
2) Plasma was assayed by ELISA for IL-1β, IL-6, TRAIL. Then, all limbs were collected.

[3] = test system: 129S8 mice infected with Influenza A virus strain X31 (H3N2); conditions: mouse, in vivo
[4] = test system: NK cells activated by K562 cells; assay: IFN-γ, TNF-α and CD107a expression by NK cells activated by K562 cells (flow cytometry); assay type: cell-based; conditions: treated 1 hour, then activated by K562 cells
pDC = assay: Cytotoxicity of compounds on cultured pDC; conditions: 10 μM
[5] = 10 mg/kg IP once daily, at termination
[6] = 30 mg/kg IP once daily, at termination

CXCR4, sequence (P61073 whole entry): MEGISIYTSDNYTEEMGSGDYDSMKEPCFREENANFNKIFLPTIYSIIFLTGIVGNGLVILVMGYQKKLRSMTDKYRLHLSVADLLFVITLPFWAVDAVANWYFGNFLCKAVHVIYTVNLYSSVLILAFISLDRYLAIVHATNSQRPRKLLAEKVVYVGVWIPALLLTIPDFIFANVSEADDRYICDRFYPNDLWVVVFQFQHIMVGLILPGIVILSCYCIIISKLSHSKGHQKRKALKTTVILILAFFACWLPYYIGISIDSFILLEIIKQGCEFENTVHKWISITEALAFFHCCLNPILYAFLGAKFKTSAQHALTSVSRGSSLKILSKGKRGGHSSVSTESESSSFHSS

Structure (SMILES): NC(=NCc1ccc(Cl)cc1)SCCCc1cnc[nH]1 [Clobenpropit, clobenpropit]
- IFN-α production and membrane TRAIL expression by pDC cultured with Flu and Dengue (Flu-stimulated pDC): strongly inhibited
- binding of the CXCR4 antibody 12G5 on T cells (CXCR4): inhibited
- solubility ([1]; PBS, aqueous buffer): > 50 mg/mL
- solubility ([1]; water): > 50 mg/mL
- reduction in terminal plasma concentration of IL-1β ([2]; 3 mg/kg IP once daily): 64%
- reduction in terminal plasma concentration of IL-6 ([2]; 3 mg/kg IP once daily): 49%
- reduction in terminal plasma concentration of TRAIL ([2]; 3 mg/kg IP once daily): had also an effect
- inhibition of disease severity ([2]; 3 mg/kg IP once daily, Day 28-42, at termination (Day 42)): 25%
- average AI (Arthritic Index) ([2]; 3 mg/kg IP once daily, at termination (Day 42)): 9.8
- reduction in terminal plasma concentration of IL-1β ([2]; 10 mg/kg IP once daily): 75%
- reduction in terminal plasma concentration of IL-6 ([2]; 10 mg/kg IP once daily): 80%
- reduction in terminal plasma concentration of TRAIL ([2]; 10 mg/kg IP once daily): had also an effect
- reduction in disease severity [2, 5]: 66%
- average AI (Arthritic Index) [2, 5]: 4.4
- reduction in terminal plasma concentration of IL-1β ([2]; 30 mg/kg IP once daily): 82%
- reduction in terminal plasma concentration of IL-6 ([2]; 30 mg/kg IP once daily): 82%
- reduction in terminal plasma concentration of TRAIL ([2]; 30 mg/kg IP once daily): significant reduction
- reduction in disease severity [2, 6]: 87%
- average AI (Arthritic Index) [2, 6]: 1.8
- disease progression over the dose range ([2]; 3, 10 and 30 mg/kg daily intraperitoneal injection): dose-dependent inhibition
- IFN-α, IFN-β and IFN-λ2/3 protein production in bronchioalveolar lavage (BAL) fluid [3]: strong reduction
- IFN-γ, TNF-α and CD107a expression by NK cells [4]: decrease
- Therapeutic index (Ratio TC50/EC50) (human primary PBMC): 17.4
- cytotoxicity on purified pDC (pDC): no cytotoxic effect
- CC50 (in vitro): 417 ± 6 µM
